Test results as given in patent US20220233624A9, “ANTI-CANCER AND ANTI-PROLIFERATIVE COMPOSITIONS, AND METHODS FOR THEIR USE IN TREATING CANCER” (Natreon, Inc., priority 2020, published 2022).
Several values for one entry are separate records, joined by “and”; a condition that tells them apart may be missing. Equal values may be shown once. Read-outs that look alike come from different tables or passages of the source. Marks after values point to notes of the source that are not given here.

Assays:
[1] = test system: Breast Cancer PDCs, ER/PR+ Her2 equivocal (HR+); assay: Anti-proliferation assay on breast cancer HR+ PDCs; format: cell-based, human; conditions: drug alone @ 3 uM; for inhibition at 3 µM: Homo sapiens; for % Inhibition, single replicates: 3 µM
Procedure: (§1) The outermost rows/columns of the plates were filled with PBS (pH 7.4) to avoid an edge-effect and were considered as blanks. Standardized aqueous extracts identified in Table 2 were prepared in main stock solutions by dissolving 1 mg of extract in 1 ml PBS (phosphate-buffered saline, pH 7.4). […] The plate was incubated in a CO2 incubator for 0/N incubation for 24 hours. […] Once extracts were added to incubated cells and mixed gently, the plate was given a brief spin and incubated in the CO2 incubator for 72 hours. The plate was removed from the incubator and 10 ul of detection reagent (CellTiterGlo®; Promega Corporation, Wisconsin, USA) added to each well of the 384 well plate. […] The assay described above is a two-dimensional (2D) assay.

[2] = test system: TN breast cancer PDCs SB 30750; assay: Anti-proliferation assay on TN breast cancer PDCs SB 30750; format: cell-based; conditions: Homo sapiens, 3 uM, 72 h
Procedure: In this Example, AyuFlex®, Capros®, and Ayuric® were each applied to different PDCs than previous tests, TN breast cancer PDCs SB 30750, and tested via the anti-proliferation assay described above. […] Incubation times were 72 hours.

[3] = test system: colon cancer cells (cell line HT-29); conditions: J. Surg. Res. 111(1):63-69 (2003); read-out: IC50 (published); cited from earlier work
[4] = test system: TN Breast Cancer cell line MDAMB-231; assay: Anti-proliferation assay on MDAMB-231 cells (72 h and 120 h); format: cell-based; conditions: Homo sapiens, MDA-MB-231, 3 uM
Procedure: Also, AyuFlex®, Capros®, and Ayuric® were tested in the anti-proliferative assay discussed above in the TN Breast Cancer cell line MDAMB-231. AyuFlex®, Capros®, and Ayuric® were incubated for 72 hours and 120 hours. The dose-response efficacy of AyuFlex®, Capros®, and Ayuric® after a 72-hour period of incubation was similar to that observed after a 120-hour period of incubation with the MDAMB-231 cells. Without being bound by theory, possibly this was due to saturation of cell growth at the 120-hour time-point.

[5] = test system: colon cancer cells (cell line HT-29); assay: Anti-proliferation assay on colon cancer cells; format: cell-based; conditions: Homo sapiens
Procedure: (§2) Anti-proliferative and anti-cancer activity of extracts of this invention on non-small cell lung cancer cells and colon cancer cells were assessed generally as described in Example I and are discussed below. […] As noted throughout this application, the below data is intended to describe the present invention but not to be limiting.
(§3) Non-small cell lung cancer cells (cell line NCI-H-358) and colon cancer cells (cell line HT-29) were plated in a 384-well plate in amounts of about 1.25 k cells/well. […] Wells with untreated cells and with plain media were also included as controls. Plates passed quality control parameters.

[6] = test system: Breast Cancer PDCs, ER/PR− Her2+ (Her2+); assay: Anti-proliferation assay on breast cancer Her2+ PDCs; format: cell-based, human; conditions: drug alone @ 3 uM; for inhibition at 3 µM: Homo sapiens; for % Inhibition, single replicates: 3 µM
Procedure: as §1

[7] = test system: Breast Cancer PDCs, Triple negative (TN), SB 36344; assay: Anti-proliferation assay on breast cancer TN PDCs; format: cell-based, human; conditions: drug alone @ 3 uM; for inhibition at 3 µM: Homo sapiens; for % Inhibition, single replicates: 3 µM
Procedure: as §1

[8] = test system: SHP-77 (small cell lung cancer) cells; assay: Anti-proliferation assay on small cell lung cancer cells; format: cell-based; conditions: Homo sapiens, SHP77
Procedure: SHP-77 (small cell lung cancer) cells were incubated for 72 hours with 100 ug/ml, 30 ug/ml, and 10 ug/ml each of AyuFlex®, Capros® Phyto-BGS®, PrimaVie®, Sensoril®, Ayuric®, and Crominex®, and tested according to the anti-proliferative assay described above. Cells were plated at 1.25 k/well in 384 well plates. Standard of care drug docetaxel was also tested at a 10 uM concentration as a control. Anti-proliferative assays were generally performed as discussed above, in triplicate, with detection reagent CellTiterGlo® as discussed for instance in Example I. Tables 77-79 show data for controls and that the data passed quality control parameters.

[9] = test system: Ovarian cancer (OVCAR-3) cells; assay: Anti-proliferation assay on ovarian cancer cells; format: cell-based; conditions: Homo sapiens
Procedure: (§4) Cells were plated at 1.25 k/well in 384 well plates. […] Anti-proliferative assays were generally performed as discussed in Example I above, in triplicate, with detection reagent CellTiterGlo. Tables 80-82 show data for controls for assays on prostate cancer (PC-3 cells), and that the data passed quality control parameters. Tables 83-85 show data for controls for assays on ovarian cancer (OVCAR-3 cells), and that the data passed quality control parameters.

[10] = test system: Non-small cell lung cancer cells (cell line NCI-H-358); conditions: Intl. J. Oncol. 31:241-252 (2007); read-out: IC50 (published); cited from earlier work
[11] = test system: Prostate cancer (PC-3) cells; assay: Anti-proliferation assay on prostate cancer cells; format: cell-based; conditions: Homo sapiens
Procedure: as §4

[12] = test system: Non-small cell lung cancer cells (cell line NCI-H-358); assay: Anti-proliferation assay on non-small cell lung cancer cells; format: cell-based; conditions: Homo sapiens, NCI-H358
Procedure: as §2, §3

[13] = 72 hour incubation, read-out: % Inhibition Avg
[14] = 72 hour incubation, read-out: % Inhibition n1
[15] = 72 hour incubation, read-out: % Inhibition n2
[16] = 72 hour incubation, read-out: % Inhibition n3
[17] = 120 hour incubation, read-out: % Inhibition Avg
[18] = 120 hour incubation, read-out: % Inhibition n1
[19] = 120 hour incubation, read-out: % Inhibition n2
[20] = 120 hour incubation, read-out: % Inhibition n3
[21] = drug 10 uM, read-out: inhibition of proliferation
[22] = plate control @ 10 uM, read-out: % Inhibition Average (SD)
[23] = plate control @ 10 uM, read-out: % Inhibition n1
[24] = plate control @ 10 uM, read-out: % Inhibition n2
[25] = plate control @ 10 uM, read-out: % Inhibition n3
[26] = read-out: % Inhibition, single replicates
[27] = 10 uM, 72 h, read-out: % Inhibition Average (SD)
[28] = 10 uM, 72 h, read-out: % Inhibition n1
[29] = 10 uM, 72 h, read-out: % Inhibition n2
[30] = 10 uM, 72 h, read-out: % Inhibition n3
[31] = drug 10 uM, read-out: inhibition

SMILES: O=c1[nH]cc(F)c(=O)[nH]1 [5-FU, 5-fluorouracil]
- inhibition at 3 µM ([1]; read-out: % Inhibition Avg): ~28%
- % Inhibition Avg [1]: 29%
- % Inhibition, single replicates [1]: 42% and 20% and 23%
- inhibition at 3 µM ([2]; read-out: % Inhibition Avg): 24%
- inhibition at 3 µM ([2]; read-out: % Inhibition n1): 44%
- inhibition at 3 µM ([2]; read-out: % Inhibition n2): 14%
- inhibition at 3 µM ([2]; read-out: % Inhibition n3): 14%
- IC50 [3]: 13 µM
- inhibition at 3 µM [4, 13]: 4%
- inhibition at 3 µM [4, 14]: 21%
- inhibition at 3 µM [4, 15]: -5%
- inhibition at 3 µM [4, 16]: -4%
- inhibition at 3 µM [4, 17]: -8%
- inhibition at 3 µM [4, 18]: 20%
- inhibition at 3 µM [4, 19]: -10%
- inhibition at 3 µM [4, 20]: -5%
- inhibition at 10 µM [5, 21]: 12%
- inhibition at 10 µM [5, 22]: 12%
- inhibition at 10 µM [5, 23]: 20%
- inhibition at 10 µM [5, 24]: 7%
- inhibition at 10 µM [5, 25]: 10%
- inhibition at 3 µM [6]: 18%
- % Inhibition, single replicates [6]: 41* % and 16% and 19%
- inhibition at 3 µM ([7]; read-out: % Inhibition Avg): 38%
- inhibition at 3 µM [7, 26]: 48%
- % Inhibition, single replicates [7]: 33%

SMILES: CC(=O)O[C@@]12CO[C@@H]1C[C@H](O)[C@@]1(C)C(=O)[C@H](O)C3=C(C)[C@@H](OC(=O)[C@H](O)[C@@H](NC(=O)OC(C)(C)C)c4ccccc4)C[C@@](O)([C@@H](OC(=O)c4ccccc4)[C@H]21)C3(C)C [Docetaxel, docetaxel]
- inhibition at 3 µM ([1]; read-out: % Inhibition Avg): ~59%
- inhibition at 3 µM [1, 26]: 67%
- % Inhibition, single replicates [1]: 53% and 58%
- inhibition at 3 µM ([2]; read-out: % Inhibition Avg): 56%
- inhibition at 3 µM ([2]; read-out: % Inhibition n1): 68%
- inhibition at 3 µM ([2]; read-out: % Inhibition n2): 52%
- inhibition at 3 µM ([2]; read-out: % Inhibition n3): 47%
- inhibition at 10 µM [8, 27]: 90%
- inhibition at 10 µM [8, 28]: 90%
- inhibition at 10 µM [8, 29]: 91%
- inhibition at 10 µM [8, 30]: 89%
- inhibition at 10 µM [8, 31]: 90%
- inhibition at 10 µM [9, 27]: 66%
- inhibition at 10 µM [9, 28]: 65%
- inhibition at 10 µM [9, 29]: 68%
- inhibition at 10 µM [9, 30]: 65%
- inhibition at 10 µM [9, 31]: 66%
- IC50 [10]: 0.367 µM
- inhibition at 10 µM [11, 27]: 58%
- inhibition at 10 µM [11, 28]: 53%
- inhibition at 10 µM [11, 29]: 67%
- inhibition at 10 µM [11, 30]: 56%
- inhibition at 10 µM [11, 31]: 58%
- inhibition at 10 µM [12, 21]: 58%
- inhibition at 10 µM [12, 22]: 58%
- inhibition at 10 µM [12, 23]: 63%
- inhibition at 10 µM [12, 24]: 55%
- inhibition at 10 µM [12, 25]: 58%
- inhibition at 3 µM [4, 13]: 56%
- inhibition at 3 µM [4, 14]: 67%
- inhibition at 3 µM [4, 15]: 50%
- inhibition at 3 µM [4, 16]: 52%
- inhibition at 3 µM [4, 17]: 75%
- inhibition at 3 µM [4, 18]: 78%
- inhibition at 3 µM [4, 19]: 71%
- inhibition at 3 µM [4, 20]: 76%
- inhibition at 3 µM [6]: ~50%
- % Inhibition, single replicates [6]: 30* % and 43% and 57%
- inhibition at 3 µM ([7]; read-out: % Inhibition Avg): ~48%
- inhibition at 3 µM [7, 26]: 56%
- % Inhibition, single replicates [7]: 44% and 43%
